DC50 and Dmax data for 13 molecules are collected here from patent US12539292B2, “BRM targeting compounds and associated methods of use” (Arvinas Operations, Inc., priority 2018, dated 2026).

Read-outs that look alike come from different tables or passages of the source.

In this assay the target is T1, BRM (Homo sapiens, UniProt P51531).
T1 construct: In-Cell Western Screen of BRM Degradation in SW1573 Cells; endogenous in cells; host or cells: SW1573
The assay is described as follows: In-cell Western screen of BRM degradation in SW1573 cells (Dmax and DC50). Format: cell-based. Particulars: for DC50: read-out: BRM DC50; for Dmax: SW1573, % degraded, when tested at the top concentration of between 0.3 and 10 μM, read-out: BRM Dmax (%). An outline of the steps: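 Overnight compound treatment (18-20 h, final DMSO 0.1%) of SW1573 cells in DMEM with 10% FBS precedes fixation and in-cell Western staining with 800/680 nm dye-labelled secondaries. Plate images give DC50 and maximal degradation.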

T1 sequence (P51531 whole entry): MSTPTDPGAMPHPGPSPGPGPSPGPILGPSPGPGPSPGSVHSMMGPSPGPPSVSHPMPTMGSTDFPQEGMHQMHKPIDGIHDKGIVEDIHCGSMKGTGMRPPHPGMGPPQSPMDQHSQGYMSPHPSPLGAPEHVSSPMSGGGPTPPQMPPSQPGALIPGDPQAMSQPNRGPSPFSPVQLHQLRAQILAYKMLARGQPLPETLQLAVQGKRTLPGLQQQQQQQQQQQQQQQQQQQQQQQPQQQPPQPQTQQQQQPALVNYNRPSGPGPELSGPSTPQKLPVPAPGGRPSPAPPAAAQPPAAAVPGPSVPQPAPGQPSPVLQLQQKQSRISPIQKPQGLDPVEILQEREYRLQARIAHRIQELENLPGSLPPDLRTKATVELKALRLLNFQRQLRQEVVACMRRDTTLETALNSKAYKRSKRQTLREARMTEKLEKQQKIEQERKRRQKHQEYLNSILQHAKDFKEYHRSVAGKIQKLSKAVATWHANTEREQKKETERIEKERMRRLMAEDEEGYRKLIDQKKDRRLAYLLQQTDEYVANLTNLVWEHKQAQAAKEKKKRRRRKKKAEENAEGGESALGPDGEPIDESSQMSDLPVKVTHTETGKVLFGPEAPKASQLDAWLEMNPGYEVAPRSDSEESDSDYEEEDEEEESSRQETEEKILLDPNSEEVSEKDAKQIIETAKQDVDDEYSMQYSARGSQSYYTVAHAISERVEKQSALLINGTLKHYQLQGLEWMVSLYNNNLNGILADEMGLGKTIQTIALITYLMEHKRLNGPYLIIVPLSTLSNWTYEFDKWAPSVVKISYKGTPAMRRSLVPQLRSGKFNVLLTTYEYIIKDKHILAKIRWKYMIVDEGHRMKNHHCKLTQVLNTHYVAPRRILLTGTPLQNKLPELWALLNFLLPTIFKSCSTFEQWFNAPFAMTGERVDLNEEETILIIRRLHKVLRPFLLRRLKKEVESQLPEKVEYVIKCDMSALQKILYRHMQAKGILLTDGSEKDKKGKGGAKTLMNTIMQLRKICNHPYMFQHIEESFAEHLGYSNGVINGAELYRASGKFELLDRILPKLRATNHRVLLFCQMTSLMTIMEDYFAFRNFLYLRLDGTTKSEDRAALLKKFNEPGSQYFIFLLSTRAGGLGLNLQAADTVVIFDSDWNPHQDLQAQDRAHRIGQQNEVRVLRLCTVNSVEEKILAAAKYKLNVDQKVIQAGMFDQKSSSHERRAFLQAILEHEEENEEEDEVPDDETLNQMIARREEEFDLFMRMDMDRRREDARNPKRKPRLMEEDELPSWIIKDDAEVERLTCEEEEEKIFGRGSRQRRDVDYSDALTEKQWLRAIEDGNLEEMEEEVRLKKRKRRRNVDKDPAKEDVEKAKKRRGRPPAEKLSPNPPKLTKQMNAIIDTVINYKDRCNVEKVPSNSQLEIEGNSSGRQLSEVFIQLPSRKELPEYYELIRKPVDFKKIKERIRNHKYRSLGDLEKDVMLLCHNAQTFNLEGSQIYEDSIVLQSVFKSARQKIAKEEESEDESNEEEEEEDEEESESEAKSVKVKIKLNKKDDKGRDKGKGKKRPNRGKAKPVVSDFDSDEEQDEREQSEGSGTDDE

Usually DC50 stands for the concentration giving 50% degradation. Take `Cc1ncsc1-c1ccc([C@H](C)NC(=O)[C@@H]2C[C@@H](O)CN2C(=O)[C@@H](c2cc(OCCN3CCC(O[C@H]4C[C@H](Oc5cc(N6C7CCC6CN(c6ccn8cc(-c9ccccc9O)nc8n6)C7)ccn5)C4)CC3)no2)C(C)C)cc1` [compound 489, (2S,4R)-4-hydroxy-1-((2R)-2-(3-(2-(4-((1r,3R)-3-((4-(3-(2-(2-hydroxyphenyl)imidazo[1,2-a]pyrimidin-7-yl)-3,8-diazabicyclo[3.2.1]octan-8-yl)pyridin-2-yl)oxy)cyclobutoxy)piperidin-1-yl)ethoxy)isoxazol-5-yl)-3-methylbutanoyl)-N-((S)-1-(4-(4-methylthiazol-5-yl)phenyl)ethyl)pyrrolidine-2-carboxamide]: the DC50 (target protein degradation) is greater than 30 nM. In the case of `Cc1ncsc1-c1cnc([C@H](C)NC(=O)[C@@H]2C[C@@H](O)CN2C(=O)[C@H](c2cc(OCCN3CCC(O[C@H]4C[C@H](Oc5cc(N6C7CCC6CN(c6cc(-c8ccccc8O)nnc6N)C7)ccn5)C4)CC3)no2)C(C)C)cn1` [compound 490, (2S,4R)-1-((2S)-2-(3-(2-(4-((1r,3S)-3-((4-(3-(3-amino-6-(2-hydroxyphenyl)pyridazin-4-yl)-3,8-diazabicyclo[3.2.1]octan-8-yl)pyridin-2-yl)oxy)cyclobutoxy)piperidin-1-yl)ethoxy)isoxazol-5-yl)-3-methylbutanoyl)-4-hydroxy-N-((S)-1-(5-(4-methylthiazol-5-yl)pyrazin-2-yl)ethyl)pyrrolidine-2-carboxamide], the DC50 (target protein degradation) was greater than 30 nM. For orientation: Dmax means the largest share of the target that was removed. Consider `Cc1ncsc1-c1cnc([C@H](C)NC(=O)[C@@H]2C[C@@H](O)CN2C(=O)[C@@H](c2cc(OCCN3CCC(O[C@H]4C[C@H](Oc5cc(N6C7CCC6CN(c6cc(-c8ccccc8O)nnc6N)C7)ccn5)C4)CC3)no2)C(C)C)cn1` [compound 491, (2S,4R)-1-((2R)-2-(3-(2-(4-((1r,3R)-3-((4-(3-(3-amino-6-(2-hydroxyphenyl)pyridazin-4-yl)-3,8-diazabicyclo[3.2.1]octan-8-yl)pyridin-2-yl)oxy)cyclobutoxy)piperidin-1-yl)ethoxy)isoxazol-5-yl)-3-methylbutanoyl)-4-hydroxy-N-((S)-1-(5-(4-methylthiazol-5-yl)pyrazin-2-yl)ethyl)pyrrolidine-2-carboxamide], for which the Dmax was greater than 75%. The DC50 (BRM degradation) is less than 2.5 nM. With `Cc1ncsc1-c1ccc([C@H](C)NC(=O)[C@@H]2C[C@@H](O)CN2C(=O)[C@H](c2cc(OCCN3CCC(O[C@H]4C[C@H](Nc5cc(N6C7CCC6CN(c6cc(-c8ccccc8O)nnc6N)C7)ccn5)C4)CC3)no2)C(C)C)cc1` [compound 492, (2S,4R)-1-((2S)-2-(3-(2-(4-((1r,3S)-3-((4-(3-(3-amino-6-(2-hydroxyphenyl)pyridazin-4-yl)-3,8-diazabicyclo[3.2.1]octan-8-yl)pyridin-2-yl)amino)cyclobutoxy)piperidin-1-yl)ethoxy)isoxazol-5-yl)-3-methylbutanoyl)-4-hydroxy-N-((S)-1-(4-(4-methylthiazol-5-yl)phenyl)ethyl)pyrrolidine-2-carboxamide], the DC50 (BRM degradation) was greater than 30 nM. As for `Cc1ncsc1-c1ccc([C@H](C)NC(=O)[C@@H]2C[C@@H](O)CN2C(=O)[C@@H](c2cc(OCCN3CCC(O[C@H]4C[C@H](Nc5cc(N6C7CCC6CN(c6cc(-c8ccccc8O)nnc6N)C7)ccn5)C4)CC3)no2)C(C)C)cc1` [compound 493, (2S,4R)-1-((2R)-2-(3-(2-(4-((1r,3R)-3-((4-(3-(3-amino-6-(2-hydroxyphenyl)pyridazin-4-yl)-3,8-diazabicyclo[3.2.1]octan-8-yl)pyridin-2-yl)amino)cyclobutoxy)piperidin-1-yl)ethoxy)isoxazol-5-yl)-3-methylbutanoyl)-4-hydroxy-N-((S)-1-(4-(4-methylthiazol-5-yl)phenyl)ethyl)pyrrolidine-2-carboxamide], the Dmax was greater than 75%. Further, the DC50 (BRM degradation) was less than 2.5 nM. Taken in the same sequence, the figures for `Cc1cc([C@@H](C(=O)N2C[C@H](O)C[C@H]2C(=O)N[C@@H](C)c2ccc(-c3scnc3C)cc2)[C@@H](C)COCCCOc2cc(N3C4CCC3CN(c3cc(-c5ccccc5O)nnc3N)C4)ccn2)on1` [compound 494, (2S,4R)-1-((2S,3R)-4-(3-((4-(3-(3-amino-6-(2-hydroxyphenyl)pyridazin-4-yl)-3,8-diazabicyclo[3.2.1]octan-8-yl)pyridin-2-yl)oxy)propoxy)-3-methyl-2-(3-methylisoxazol-5-yl)butanoyl)-4-hydroxy-N-((S)-1-(4-(4-methylthiazol-5-yl)phenyl)ethyl)pyrrolidine-2-carboxamide] were greater than 75% and less than 2.5 nM. In the case of `Cc1cc([C@H](C(=O)N2C[C@H](O)C[C@H]2C(=O)N[C@@H](C)c2ccc(-c3scnc3C)cc2)[C@@H](C)COCCCOc2cc(N3C4CCC3CN(c3cc(-c5ccccc5O)nnc3N)C4)ccn2)on1` [compound 495, (2S,4R)-1-((2R,3R)-4-(3-((4-(3-(3-amino-6-(2-hydroxyphenyl)pyridazin-4-yl)-3,8-diazabicyclo[3.2.1]octan-8-yl)pyridin-2-yl)oxy)propoxy)-3-methyl-2-(3-methylisoxazol-5-yl)butanoyl)-4-hydroxy-N-((S)-1-(4-(4-methylthiazol-5-yl)phenyl)ethyl)pyrrolidine-2-carboxamide], the DC50 (BRM degradation) is greater than 30 nM. Consider `Cc1ncsc1-c1ccc([C@H](C)NC(=O)[C@@H]2C[C@@H](O)CN2C(=O)[C@@H](c2cc(N3CCC(CN4CCC(O[C@H]5C[C@H](C#C[C@@H](C)n6cc(-c7cc(-c8ccccc8O)nnc7N)cn6)C5)CC4)CC3)no2)C(C)C)cc1` [compound 496, (2S,4R)-1-((R)-2-(3-(4-((4-((1R,3r)-3-((R)-3-(4-(3-amino-6-(2-hydroxyphenyl)pyridazin-4-yl)-1H-pyrazol-1-yl)but-1-yn-1-yl)cyclobutoxy)piperidin-1-yl)methyl)piperidin-1-yl)isoxazol-5-yl)-3-methylbutanoyl)-4-hydroxy-N-((S)-1-(4-(4-methylthiazol-5-yl)phenyl)ethyl)pyrrolidine-2-carboxamide], for which the Dmax was greater than 75%. Further, the DC50 (BRM degradation) was less than 2.5 nM.

For the molecule `Cc1ncsc1-c1ccc([C@H](C)NC(=O)[C@@H]2C[C@@H](O)CN2C(=O)[C@@H](c2cc(N3CCC(CN4CCC(O[C@H]5C[C@H](C#C[C@H](C)n6cc(-c7cc(-c8ccccc8O)nnc7N)cn6)C5)CC4)CC3)no2)C(C)C)cc1` [compound 497, (2S,4R)-1-((R)-2-(3-(4-((4-((1S,3r)-3-((S)-3-(4-(3-amino-6-(2-hydroxyphenyl)pyridazin-4-yl)-1H-pyrazol-1-yl)but-1-yn-1-yl)cyclobutoxy)piperidin-1-yl)methyl)piperidin-1-yl)isoxazol-5-yl)-3-methylbutanoyl)-4-hydroxy-N-((S)-1-(4-(4-methylthiazol-5-yl)phenyl)ethyl)pyrrolidine-2-carboxamide], the Dmax was greater than 75%. Under “BRM degradation”, the DC50 is less than 2.5 nM. In the case of `Cc1ncsc1-c1ccc([C@H](C)NC(=O)[C@@H]2C[C@@H](O)CN2C(=O)[C@H](c2cc(N3CCN(C[C@H]4C[C@H](Oc5cc(N6C7CCC6CN(c6cc(-c8ccccc8O)nnc6N)C7)ccn5)C4)CC3)no2)C(C)C)cc1` [compound 498, (2S,4R)-1-((2S)-2-(3-(4-(((1r,3S)-3-((4-(3-(3-amino-6-(2-hydroxyphenyl)pyridazin-4-yl)-3,8-diazabicyclo[3.2.1]octan-8-yl)pyridin-2-yl)oxy)cyclobutyl)methyl)piperazin-1-yl)isoxazol-5-yl)-3-methylbutanoyl)-4-hydroxy-N-((S)-1-(4-(4-methylthiazol-5-yl)phenyl)ethyl)pyrrolidine-2-carboxamide], the DC50 (BRM degradation) is greater than 30 nM. On to `Cc1ncsc1-c1ccc([C@H](C)NC(=O)[C@@H]2C[C@@H](O)CN2C(=O)[C@@H](c2cc(N3CCN(C[C@H]4C[C@H](Oc5cc(N6C7CCC6CN(c6cc(-c8ccccc8O)nnc6N)C7)ccn5)C4)CC3)no2)C(C)C)cc1` [compound 499, (2S,4R)-1-((2R)-2-(3-(4-(((1r,3R)-3-((4-(3-(3-amino-6-(2-hydroxyphenyl)pyridazin-4-yl)-3,8-diazabicyclo[3.2.1]octan-8-yl)pyridin-2-yl)oxy)cyclobutyl)methyl)piperazin-1-yl)isoxazol-5-yl)-3-methylbutanoyl)-4-hydroxy-N-((S)-1-(4-(4-methylthiazol-5-yl)phenyl)ethyl)pyrrolidine-2-carboxamide], for which the Dmax was greater than 75%. Further, the DC50 (BRM degradation) was less than 2.5 nM. With `Cc1ncsc1-c1ncc([C@H](C)NC(=O)[C@@H]2C[C@@H](O)CN2C(=O)C(c2cc(OCCN3CCC(O[C@H]4C[C@H](Oc5cc(N6C7CCC6CN(c6cc(-c8ccccc8O)nnc6N)C7)ccn5)C4)CC3)no2)C(C)C)cc1F` (stereo partly drawn) [compound 500, (2S,4R)-1-(2-(3-(2-(4-((1r,3r)-3-((4-(3-(3-amino-6-(2-hydroxyphenyl)pyridazin-4-yl)-3,8-diazabicyclo[3.2.1]octan-8-yl)pyridin-2-yl)oxy)cyclobutoxy)piperidin-1-yl)ethoxy)isoxazol-5-yl)-3-methylbutanoyl)-N-((S)-1-(5-fluoro-6-(4-methylthiazol-5-yl)pyridin-3-yl)ethyl)-4-hydroxypyrrolidine-2-carboxamide], where the note is “BRM degradation”, the DC50 is greater than 30 nM.

Consider `Cc1ncsc1-c1ncc([C@@H](C)NC(=O)[C@@H]2C[C@@H](O)CN2C(=O)C(c2cc(OCCN3CCC(O[C@H]4C[C@H](Oc5cc(N6C7CCC6CN(c6cc(-c8ccccc8O)nnc6N)C7)ccn5)C4)CC3)no2)C(C)C)cc1F` (stereo partly drawn) [compound 501, (2S,4R)-1-(2-(3-(2-(4-((1r,3r)-3-((4-(3-(3-amino-6-(2-hydroxyphenyl)pyridazin-4-yl)-3,8-diazabicyclo[3.2.1]octan-8-yl)pyridin-2-yl)oxy)cyclobutoxy)piperidin-1-yl)ethoxy)isoxazol-5-yl)-3-methylbutanoyl)-N-((R)-1-(5-fluoro-6-(4-methylthiazol-5-yl)pyridin-3-yl)ethyl)-4-hydroxypyrrolidine-2-carboxamide], for which the Dmax is greater than 75%. The DC50 (BRM degradation) was less than 2.5 nM.
